Patent publication US6503912B1, “Substituted guanidine derivatives” (Bayer Aktiengesellschaft, priority 1998, dated 2003)

Experiment: logP determination by HPLC (EEC directive 79/831 Annex V. A8)
Conditions: HPLC gradient method, acetonitrile/0.1% aqueous phosphoric acid
Experimental: [logP=The logP values were determined in accordance with EEC directive 79/831 Annex V. A8 by HPLC (gradient method, acetonitrile/0.1% aqueous phosphoric acid]

O=C(OCN1CCN(Cc2ccc(Cl)nc2)C1=N[N+](=O)[O-])C1CC1 [Example 59]
logP (pH = 2.3): 1.57
